# Test results published in PMC9270327 (Communications Biology, 2022).
# Several values for one entry are separate records, joined by “and”; a condition that tells them apart may be missing. Identical values can stand only once. Like-named read-outs stand apart in the source and are kept apart here.
# Columns and labels:
# [1] = system: SARS-CoV-2 Alpha (B.1.1.7), Caco-2 cells; type: cell-based; details: for SARS-CoV-2 infection, Mean (0 nM = 100): Fig. 6c, VOC Alpha
# [2] = system: lentiviral pseudoparticles carrying SARS-CoV-2 Beta (B.1.351) spike, Caco-2 cells; type: cell-based; details: for SARS-CoV-2 spike driven entry, Mean (0 nM = 100): Fig. 5c
# TMPRSS2 = TMPRSS2 (Homo sapiens, UniProt O15393); assay: Cell culture medium stability: residual TMPRSS2 inhibition after incubation in medium
# Chain of TMPRSS2 (O15393 whole entry): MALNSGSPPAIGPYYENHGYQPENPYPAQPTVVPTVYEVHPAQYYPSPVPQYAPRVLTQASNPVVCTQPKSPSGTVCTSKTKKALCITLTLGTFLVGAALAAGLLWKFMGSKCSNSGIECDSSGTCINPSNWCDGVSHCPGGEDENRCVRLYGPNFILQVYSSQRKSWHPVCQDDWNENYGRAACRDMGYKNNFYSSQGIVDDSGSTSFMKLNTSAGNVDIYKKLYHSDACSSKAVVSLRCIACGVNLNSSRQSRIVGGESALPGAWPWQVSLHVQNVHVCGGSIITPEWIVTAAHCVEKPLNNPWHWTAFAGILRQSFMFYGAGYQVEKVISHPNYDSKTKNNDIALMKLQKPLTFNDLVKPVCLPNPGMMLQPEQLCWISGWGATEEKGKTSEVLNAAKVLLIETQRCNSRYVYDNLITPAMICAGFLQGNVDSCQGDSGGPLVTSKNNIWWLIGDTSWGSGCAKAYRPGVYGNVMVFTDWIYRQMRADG
# Method: The activity of the compounds against the recombinant human enzymes was determined in enzyme inhibition assays. […] The measurements were performed on a Tecan infinite® M1000 and the fluorescence intensity was measured by exciting the AMC fluorophore at 380 nm wavelength and recording emission at 460 nm wavelength. […] Fluorescence intensities and absorption were measured every 2 min for 2 h or as endpoint after 2 h. […] To determine the IC50 values, the concentration-response data were plotted with the program GraphPad prism version 8.4.2 (San Diego, California) and a nonlinear regression fit with the equation [Inhibitor] vs. normalized response was applied. The inhibitory constant Ki was calculated from the IC50 values using the Cheng–Prusoff equation (Ki = IC50/[S]/KM) for competitive reversible inhibitors[66].
# The stability of the inhibitors was measured according to a modified procedure from ref. [67]. […] At indicated timepoints, 100 µL samples were taken and mixed with 200 µL of ethanol to precipitate proteins. […] The supernatant was aspirated and analyzed using analytical HPLC. The residual inhibitory constants Ki after incubation was assessed by mixing serial dilutions of the inhibitor with recombinant TMPRSS2 as described above.
# were mixed with recombinant TMPRSS2, followed by the addition of the fluorogenic reference
# Shown are the means ± SD of n=1 experiment performed in triplicates.
# [3] = system: lentiviral pseudoparticles carrying SARS-CoV-2 Omicron BA.1 (B.1.1.529) spike, Caco-2 cells; type: cell-based
substance,measurement,setting,value
ace-Arg-Pro-Arg-kbt [Compound 2],"SARS-CoV-2 infection, Mean (0 nM = 100)",[1]; compound 32 nM,106.285
same,"SARS-CoV-2 infection, Mean (0 nM = 100)",[1]; compound 160 nM,107.747
same,"SARS-CoV-2 infection, Mean (0 nM = 100)",[1]; compound 800 nM,109.671
same,"SARS-CoV-2 infection, Mean (0 nM = 100)",[1]; compound 4000 nM,112.829
same,"SARS-CoV-2 infection, Mean (0 nM = 100)",[1]; compound 20000 nM,1.3092
same,"SARS-CoV-2 infection, Mean (0 nM = 100)",[1]; compound 100000 nM,-2.734
same,IC50,[1]; read-out: IC50 SARS-CoV-2 Alpha,~20000 nM
same,IC50,"[2]; Caco-2 cells, luciferase 2 days post transduction, read-out: IC50 pseudotyped lentivirus Beta",434 nM
same,"SARS-CoV-2 spike driven entry, Mean (0 nM = 100)",[2]; compound 3.2 nM,86.789
same,"SARS-CoV-2 spike driven entry, Mean (0 nM = 100)",[2]; compound 16 nM,76.3745
same,"SARS-CoV-2 spike driven entry, Mean (0 nM = 100)",[2]; compound 80 nM,81.347
same,"SARS-CoV-2 spike driven entry, Mean (0 nM = 100)",[2]; compound 400 nM,58.1085
same,"SARS-CoV-2 spike driven entry, Mean (0 nM = 100)",[2]; compound 2000 nM,24.7225
same,"SARS-CoV-2 spike driven entry, Mean (0 nM = 100)",[2]; compound 10000 nM,3.543
same,"SARS-CoV-2 spike driven entry, Mean (0 nM = 100)",[2]; compound 50000 nM,0.923
same,"Residual TMPRSS2 activity, Mean (0 nM = 100)","TMPRSS2; inhibitor 0.0167 nM, 0 min in cell culture medium",98.9717
same,"Residual TMPRSS2 activity, Mean (0 nM = 100)","TMPRSS2; inhibitor 0.0167 nM, 30 min in cell culture medium",101.323
same,"Residual TMPRSS2 activity, Mean (0 nM = 100)","TMPRSS2; inhibitor 0.0167 nM, 60 min in cell culture medium",96.8723
same,"Residual TMPRSS2 activity, Mean (0 nM = 100)","TMPRSS2; inhibitor 0.0167 nM, 120 min in cell culture medium",98.5343
same,"Residual TMPRSS2 activity, Mean (0 nM = 100)","TMPRSS2; inhibitor 0.0167 nM, 24 h in cell culture medium",98.1961
same,"Residual TMPRSS2 activity, Mean (0 nM = 100)","TMPRSS2; inhibitor 0.0167 nM, 10 d in cell culture medium",98.4437
same,"Residual TMPRSS2 activity, Mean (0 nM = 100)","TMPRSS2; inhibitor 0.0167 nM, positive ctrl",97.6368
same,"Residual TMPRSS2 activity, Mean (0 nM = 100)","TMPRSS2; inhibitor 0.167 nM, 0 min in cell culture medium",100.63
same,"Residual TMPRSS2 activity, Mean (0 nM = 100)","TMPRSS2; inhibitor 0.167 nM, 30 min in cell culture medium",100.761
same,"Residual TMPRSS2 activity, Mean (0 nM = 100)","TMPRSS2; inhibitor 0.167 nM, 60 min in cell culture medium",103.84
same,"Residual TMPRSS2 activity, Mean (0 nM = 100)","TMPRSS2; inhibitor 0.167 nM, 120 min in cell culture medium",96.4654
same,"Residual TMPRSS2 activity, Mean (0 nM = 100)","TMPRSS2; inhibitor 0.167 nM, 24 h in cell culture medium",97.7945
same,"Residual TMPRSS2 activity, Mean (0 nM = 100)","TMPRSS2; inhibitor 0.167 nM, 10 d in cell culture medium",101.036
same,"Residual TMPRSS2 activity, Mean (0 nM = 100)","TMPRSS2; inhibitor 0.167 nM, positive ctrl",98.5654
same,"Residual TMPRSS2 activity, Mean (0 nM = 100)","TMPRSS2; inhibitor 1.665 nM, 0 min in cell culture medium",97.2536
same,"Residual TMPRSS2 activity, Mean (0 nM = 100)","TMPRSS2; inhibitor 1.665 nM, 30 min in cell culture medium",96.1305
same,"Residual TMPRSS2 activity, Mean (0 nM = 100)","TMPRSS2; inhibitor 1.665 nM, 60 min in cell culture medium",95.956
same,"Residual TMPRSS2 activity, Mean (0 nM = 100)","TMPRSS2; inhibitor 1.665 nM, 120 min in cell culture medium",95.462
same,"Residual TMPRSS2 activity, Mean (0 nM = 100)","TMPRSS2; inhibitor 1.665 nM, 24 h in cell culture medium",97.8646
same,"Residual TMPRSS2 activity, Mean (0 nM = 100)","TMPRSS2; inhibitor 1.665 nM, 10 d in cell culture medium",97.0442
same,"Residual TMPRSS2 activity, Mean (0 nM = 100)","TMPRSS2; inhibitor 1.665 nM, positive ctrl",88.6541
same,"Residual TMPRSS2 activity, Mean (0 nM = 100)","TMPRSS2; inhibitor 16.65 nM, 0 min in cell culture medium",83.5545
same,"Residual TMPRSS2 activity, Mean (0 nM = 100)","TMPRSS2; inhibitor 16.65 nM, 30 min in cell culture medium",80.8705
same,"Residual TMPRSS2 activity, Mean (0 nM = 100)","TMPRSS2; inhibitor 16.65 nM, 60 min in cell culture medium",72.3193
same,"Residual TMPRSS2 activity, Mean (0 nM = 100)","TMPRSS2; inhibitor 16.65 nM, 120 min in cell culture medium",83.5842
same,"Residual TMPRSS2 activity, Mean (0 nM = 100)","TMPRSS2; inhibitor 16.65 nM, 24 h in cell culture medium",87.4426
same,"Residual TMPRSS2 activity, Mean (0 nM = 100)","TMPRSS2; inhibitor 16.65 nM, 10 d in cell culture medium",88.0057
same,"Residual TMPRSS2 activity, Mean (0 nM = 100)","TMPRSS2; inhibitor 16.65 nM, positive ctrl",59.7774
same,"Residual TMPRSS2 activity, Mean (0 nM = 100)","TMPRSS2; inhibitor 166.5 nM, 0 min in cell culture medium",18.9266
same,"Residual TMPRSS2 activity, Mean (0 nM = 100)","TMPRSS2; inhibitor 166.5 nM, 30 min in cell culture medium",17.6545
same,"Residual TMPRSS2 activity, Mean (0 nM = 100)","TMPRSS2; inhibitor 166.5 nM, 60 min in cell culture medium",24.0301
same,"Residual TMPRSS2 activity, Mean (0 nM = 100)","TMPRSS2; inhibitor 166.5 nM, 120 min in cell culture medium",22.2899
same,"Residual TMPRSS2 activity, Mean (0 nM = 100)","TMPRSS2; inhibitor 166.5 nM, 24 h in cell culture medium",22.0487
same,"Residual TMPRSS2 activity, Mean (0 nM = 100)","TMPRSS2; inhibitor 166.5 nM, 10 d in cell culture medium",39.6688
same,"Residual TMPRSS2 activity, Mean (0 nM = 100)","TMPRSS2; inhibitor 166.5 nM, positive ctrl",18.9416
same,"Residual TMPRSS2 activity, Mean (0 nM = 100)","TMPRSS2; inhibitor 1665 nM, 0 min in cell culture medium",-1.499
same,"Residual TMPRSS2 activity, Mean (0 nM = 100)","TMPRSS2; inhibitor 1665 nM, 30 min in cell culture medium",5.536
same,"Residual TMPRSS2 activity, Mean (0 nM = 100)","TMPRSS2; inhibitor 1665 nM, 60 min in cell culture medium",0.2889
same,"Residual TMPRSS2 activity, Mean (0 nM = 100)","TMPRSS2; inhibitor 1665 nM, 120 min in cell culture medium",-1.86
same,"Residual TMPRSS2 activity, Mean (0 nM = 100)","TMPRSS2; inhibitor 1665 nM, 24 h in cell culture medium",-0.886
same,"Residual TMPRSS2 activity, Mean (0 nM = 100)","TMPRSS2; inhibitor 1665 nM, 10 d in cell culture medium",10.1282
same,"Residual TMPRSS2 activity, Mean (0 nM = 100)","TMPRSS2; inhibitor 1665 nM, positive ctrl",0.02381
same,"SARS-CoV-2 spike driven entry, Mean (0 nM = 100)",[3],80.0549 and 94.4227 and 98.8201
same,IC50,"[3]; Caco-2 cells, luciferase 2 days post transduction, read-out: IC50 pseudotyped lentivirus Omicron BA.1",431 nM
same,"SARS-CoV-2 spike driven entry, Mean (0 nM = 100)","[3]; Fig. 5e, compound 400 nM, […]",52.4269
same,"SARS-CoV-2 spike driven entry, Mean (0 nM = 100)","[3]; Fig. 5e, compound 2000 nM, […]",20.742
same,"SARS-CoV-2 spike driven entry, Mean (0 nM = 100)","[3]; Fig. 5e, compound 10000 nM, […]",5.628
same,"SARS-CoV-2 spike driven entry, Mean (0 nM = 100)","[3]; Fig. 5e, compound 50000 nM, […]",3.26
